One experiment relates to H1 passage 37 hES cells. As to the kind of experiment: Passage of hES cells directly from MEF feeders to MATRIGEL with enzymes. The class given is cell-based, human. The method, then:
In an effort to move to a feeder free culture of hES cells from a feeder based culture, H1 passage 37 hES cells that had been supported by a MEF feeder layer in hESC media and grown for 5 days on 10 cm^2 wells of 6 well plates were passaged. The cells were passaged with either TrypLE™, Accutase™, or 1 mg/ml of collagenase.
Before adding enzyme to the cells, the spent media was aspirated, 1 ml PBS (no Ca^2+, or Mg^2+) was added to each well, was aspirated again, and then 1 ml of room temperature enzyme (collagenase, Accutase™, or TrypLE™) was added. Accutase™ or TrypLE™ were used at stock concentration after reaching room temperature. Collagenase was removed from −80° C. freezer, thawed, mixed with 9 ml DMEM/F12, sterile filtered, and allowed to reach room temperature before use.
The cells were incubated in enzyme at 37° C. for 10 min. […] One ml of 2% Probumin in DMEM-F12 was added to each well and the combined total volume in the well was transferred to a 50 ml sterile conical tube, making sure to lift and suspend as many cells as possible.
The cells were centrifuged for 5 minutes at 200×g followed by an additional wash with 2% Probumin and centrifugation for 5 minutes at 200×g. Cell were then resuspended in MEF conditioned media and plated at a 1 to 3.5 ratio onto MATRIGEL™ (1:30 dilution in DMEM) coated T25 flasks, and placed in a 37° C., 5% CO2, humidified incubator.
Cell number was calculated by counting with an Improved Neubauer hemocytomer. […] Given a 1 to 3.5 split ratio, we plated the Accutase treated cells at a seeding density of 2.72 million cells/T25flask or 108,000 cells/cm^2, the TrypLE™ treated cells at a seeding density 2.65 million cells/T25flask or 105,000 cells/cm^2. It is assume that Collagenase treated wells were seeded at a similar density (105,000 to 108,000 cells/cm^2), since there was no appreciable difference in hES density from well to well before enzyme treatment. An additional flask was plated with Collagenase lifted cells for counting purposes at the next passage.
Cells were maintained for 4 days with daily changes of MEF conditioned media supplemented with […] of bFGF. After 4 days in culture the cultures were confluent, and the single cell treated hES cells formed monolayers of hES cells with occasional pockets of fibroblasts, while the cluster passaged hES cells formed large colony style clusters of hES cells (FIG. 13). These cells were then passaged again.
As previously described, the cells were incubated in enzyme at 37° C. for 10 min. […] The additional collagenase flask was lifted with Accutase™. The single cells were then with an Improved Neubauer hemocytometer.
Two ml of 2% Probumin in DMEM-F12 was then added to each flask after enzyme incubation, the total volume (˜4 ml) from the flask was pipetted up and down 5-10 times in order to suspend as many cells as possible. The suspension was then transferred to a 50 ml conical tube and centrifuged for 5 min at 200×g. Cells were then resuspended in MEF conditioned media supplemented with […] of bFGF, and then plated to T25 flasks precoated with 1:30 MATRIGEL™ at a ratio of 1:4.
Given that the cells were passaged at a 1:4 ratio, the cells were plated at a density of 58,000 cell/cm^2 for Accutase™ passage, 51,000 cell/cm^2 for TrypLE™ passage, and 35,000 cell/cm^2.
Cells were then grown for an additional 6 days, with daily media change of MEF conditioned media supplemented with 16 ng/ml of bFGF.

Experiment [1] has as its system Human embryonic stem cells H9p33. In words: Cell releasing enzyme panel: passage of hES cell clusters as single cells, recovered cells counted with trypan blue. As to conditions: for CELL NUMBER: recovered cells/well after three days on MATRIGEL, reseeded at 200,000 cells/well (collagenase: clusters, 30 minute incubation, 1:5 dilution). In kind it is cell-based. The method, then:
Human embryonic stem cells H9p33 cells grown in clusters in a 6 well dish were incubated with the following enzymes; TrypLE™ Express (stable tryspin-like enzyme (Invitrogen (Carlsbad, Calif.)), TrypLE™ Select (animal origin-free trypsin-like enzyme Invitrogen (Carlsbad, Calif.)), trypsin/EDTA (0.05%), or trypsin (0.25%), for two minutes at 36° C. All enzymes released the cells within two minutes except trypsin. Release with trypsin was achieved after five minutes at 36° C. Cells were reseeded at 200,000 cells/well into a 6 well plate coated with MATRIGEL™ and allowed to expand for three days. Human embryonic stem cells were also passed as clusters with collagenase (30 minute incubation) and reseeded at a 1:5 dilution on MATRIGEL™-coated wells, similar to the counted TrypLE™ Express cells. After three days, the hESC were released by a five minute incubation with TrypLE™ Express. Cells were incubated with 0.01% trypan blue and then counted (Table 1). Cell viability immediately after release was greater than 98% for all enzymes tested. Passage of human embryonic stem cells with collagenase is the standard passaging method. […] TrypLE™ Select and TrypLE™ Express were the best enzymes evaluated and were further tested in a time course experiment, Example 3.

The next experiment concerns hES H9scp18. In words: Definitive endoderm differentiation of hES single cells in 96 well plates, IN Cell 1000 cell number and Sox17 staining. The class given is cell-based, human. As to conditions: 10 ng/ml Wnt3a, with 100 ng/ml Activin A, 0.5% FBS, two days; 40 wells. The method, then: hES H9scp18 were seeded into Packard View 96-well plates (Perkin-Elmer) coated with 1:30 growth factor reduced MATRIGEL™ at a density of 14,000 cells/cm^2. The cells were grown for three to four days in MEF conditioned medium and then treated using a DE differentiation protocol. A subset of 40 wells was treated with a standard protocol (10 ng/ml Wnt3a, 100 ng/ml Activin A, and 0.5% FBS in DMEM:F12 for two days). A second subset of 40 wells was treated with the GSK3b inhibitor IX (100 nM; EMD Chemicals, La Jolla, Calif.) instead of Wnt3a. This was followed by treatment for both subsets for three days with 100 ng/ml Activin A and 2% FBS in DMEM:F12. At the end of culture, cells were fixed with 4% paraformaldehyde at room temperature for 20 minutes, washed three times with PBS, and stored in 100 ul PBS overnight. Cells were permeabilized with 0.5% Triton X-100 (Sigma-Aldrich), either at room temperature for 20 minutes or at 4° C. for five minutes, then washed three times with PBS and blocked with 4% chicken serum (Invitrogen-Gibco, Carlesbad, Calif.) in PBS for 30 minutes at room temperature. […]

[2] abbreviates: T25 flask on 1:30 MATRIGEL, MEF conditioned media.

The results in this text go back to US10316293B2, “Methods for producing single pluripotent stem cells and differentiation thereof” (LifeScan, Inc., priority 2007, dated 2019).

In the case of Collagenase, in the experiment with H1 passage 37 hES cells (setting [2]), the “density after four days in culture” value is listed as 138,000 cell/cm^2 and the “density after four days in culture, cells total” value stood at 3.45 million cells total. Besides, the “growth and morphology after two passages” value in the experiment on H1 passage 37 hES cells (additional 6 days on MATRIGEL after second passage) was “form large colonies of dense and homogeneous cells”. In addition, the “lifting of cells from the dish” value with H1 passage 37 hES cells (first passage from MEF feeders, 10 min at 37° C.) was “did not lift cells”. Besides, in the experiment with H1 passage 37 hES cells (first passage from MEF feeders, hemocytometer count), the “density of lifted cells” value is recorded as “not countable by hemocytometer”. For the same molecule, the “lifting of cells from plastic and MATRIGEL” value in the experiment on H1 passage 37 hES cells (second passage, 10-minute treatment at 37° C.) is given as “did not lift cells”. Also, the “CELL NUMBER” value in experiment [1] is given as 3.5 10^5.
With TRYPSIN, the “time to release the cells” value in experiment [1] (36° C.) is listed as “five”. Moreover, the “recovered cell counts / maintaining cell attachment/growth (in words)” value in experiment [1] (after three days culture, compared with collagenase) is “significantly less effective at maintaining cell attachment/growth”. Besides, the “CELL NUMBER” value in experiment [1] is on record as 0.1 10^5.

B1: Wnt3a: Wnt3a (R&D Systems), 10 ng/ml in the definitive endoderm protocol (protein, UniProt P56704 19-352, looked up)
Protein Wnt-3a: SYPIWWSLAVGPQYSSLGSQPILCASIPGLVPKQLRFCRNYVEIMPSVAEGIKIGIQECQHQFRGRRWNCTTVHDSLAIFGPVLDKATRESAFVHAIASAGVAFAVTRSCAEGTAAICGCSSRHQGSPGKGWKWGGCSEDIEFGGMVSREFADARENRPDARSAMNRHNNEAGRQAIASHMHLKCKCHGLSGSCEVKTCWWSQPDFRAIGDFLKDKYDSASEMVVEKHRESRGWVETLRPRYTYFKVPTERDLVYYEASPNFCEPNPETGSFGTRDRTCNVSSHGIDGCDLLCCGRGHNARAERRREKCRCVFHWCCYVSCQECTRVYDVHTCK
In the case of B1, the “number of cell nuclei per well” value with hES H9scp18 is on record as “highest number of cell nuclei per well with little variability between wells”.
